Experiments:
HIV-IIIb = experiment: Test A: Antiviral Assay in MT4 Cells; format: cell-based, HIV-1; details: Human immunodeficiency virus 1, MT4, 120 h, inhibition of virus-induced cell killing, MT-4 cells, HIV-IIIb, 5 days, values normalized to 100%; for inhibition at 0.01 µM: from dose response curve at 0.01 μM (10 nM), read-out: % inhibition at 0.01 μM; for inhibition at 0.2 µM: from dose response curve at 0.20 μM (200 nM), read-out: % inhibition at 0.20 μM
Protocol: (§1) MT-4 cells were next mixed with HIV-IIIb at a multiplicity of infection (m.o.i.) of 0.003 for 1 hour, after which time 35 μL of virus/cell mixture (2000 cells) was immediately added to each well containing 40 μL of diluted compound. The plates were then incubated at 37° C. for 5 days. After 5 days of incubation, 25 μl of 2× concentrated CellTiter-Glo Reagent (catalog #G7571, Promega Biosciences, Inc., Madison, Wis.) was added to each well containing MT-4 cells. Cell lysis was carried out by incubating at room temperature for 10 min and then chemiluminescence was read.

[1] = Test B: Cytotoxicity Assay (same protocol as Test A, uninfected cells); format: cell-based; details: human, uninfected MT-4 cells, CellTiter-Glo
Protocol: as §1, with “read. […] Compound cytotoxicity and the corresponding CC50 values was determined using the same protocol as described in the antiviral assay (Test A) except that uninfected cells were used.” for “read.”

Structure (SMILES)	inhibition at 0.01 µM (HIV-IIIb) [%]	inhibition at 0.2 µM (HIV-IIIb) [%]	CC50 at 5 days [1] [µM]
Cn1nc(Nc2nnc(C3(O)CC3)o2)c2c(Cl)ccc(-c3ccc(C#CC(C)(C)S(=O)(=O)C4CC4)nc3[C@H](Cc3cc(F)cc(F)c3)NC(=O)Cn3nc(C(F)F)c4c3C(F)(F)[C@@H]3C[C@H]43)c21 [Example 28]	99	99	16.5
CC1(S(=O)(=O)Nc2nn(CC(F)(F)F)c3c(-c4ccc(C#CC(C)(C)S(=O)(=O)C5CC5)nc4[C@H](Cc4cc(F)cc(F)c4)NC(=O)Cn4nc(C(F)(F)F)c5c4C(F)(F)[C@@H]4C[C@H]54)ccc(Cl)c23)CC1 [Example 29]	100	100	> 57.1
Cn1nc(Nc2nnc(C(F)F)o2)c2c(Cl)ccc(-c3ccc(C#CC(C)(C)S(=O)(=O)C4CC4)nc3[C@H](Cc3cc(F)cc(F)c3)NC(=O)Cn3nc(C(F)F)c4c3C(F)(F)[C@@H]3C[C@H]43)c21 [Example 30]	99	99	> 57.1
CC1(S(=O)(=O)Nc2nn(CC(F)(F)F)c3c(-c4ccc(C#CC(C)(C)S(=O)(=O)C5CC5)nc4[C@H](Cc4cc(F)cc(F)c4)NC(=O)Cn4nc(C(F)F)c5c4C(F)(F)CCC5(F)F)ccc(Cl)c23)CC1 [Example 31]	97	98	> 57.1
CC1(S(=O)(=O)Nc2nn(CC(F)(F)F)c3c(-c4ccc(C#CC(C)(C)S(=O)(=O)C5(C)CC5)nc4[C@H](Cc4cc(F)cc(F)c4)NC(=O)Cn4nc(C(F)(F)F)c5c4C(F)(F)[C@@H]4C[C@H]54)ccc(Cl)c23)CC1 [Example 32]	100	100	> 57.1
CC(C)(C#Cc1ccc(-c2ccc(Cl)c3c(NS(=O)(=O)C4CC4)nn(CC(F)F)c23)c([C@H](Cc2cc(F)cc(F)c2)NC(=O)Cn2nc(C(F)F)c3c2C(F)(F)CCC3(F)F)n1)S(=O)(=O)C1CC1 [Example 33]	97	97	> 57.1
Cn1nc(NS(=O)(=O)C2(C)CC2)c2c(Cl)ccc(-c3ccc(C#CC(C)(C)S(=O)(=O)C4CC4)nc3[C@H](Cc3cc(F)cc(F)c3)NC(=O)Cn3nc(C(F)F)c4c3C(F)(F)CCC4(F)F)c21 [Example 34]	89	90	> 57.1
CC(C)(C#Cc1ccc(-c2ccc(Cl)c3c(NS(=O)(=O)C4CC4)nn(CC(F)(F)F)c23)c([C@H](Cc2cc(F)cc(F)c2)NC(=O)Cn2nc(C(F)F)c3c2C(F)(F)[C@@H]2C[C@H]32)n1)S(=O)(=O)C1CC1 [Example 35]	97	97	> 57.1
CC(C)(C#Cc1ccc(-c2ccc(Cl)c3c(NS(=O)(=O)C4CC4)nn(CC(F)(F)F)c23)c([C@H](Cc2cc(F)cc(F)c2)NC(=O)Cn2nc(C(F)(F)F)c3c2C(F)(F)[C@@H]2C[C@H]32)n1)S(=O)(=O)C1CC1 [Example 36]	93	93	> 57.1
CC1(S(=O)(=O)Nc2nn(CC(F)F)c3c(-c4ccc(C#CC(C)(C)S(=O)(=O)C5CC5)nc4[C@H](Cc4cc(F)cc(F)c4)NC(=O)Cn4nc(C(F)F)c5c4C(F)(F)CCC5(F)F)ccc(Cl)c23)CC1 [Example 37]	92	92	> 57.1
Cn1nc(NS(C)(=O)=O)c2c(Cl)ccc(-c3ccc(C#CC(C)(C)S(=O)(=O)C4CC4)nc3[C@H](Cc3cc(F)cc(F)c3)NC(=O)Cn3nc(C(F)F)c4c3C(F)(F)CCC4(F)F)c21 [Example 38]	93	93	> 57.1
Cn1nc(NS(=O)(=O)C2CC2)c2c(Cl)ccc(-c3ccc(C#CC(C)(C)S(=O)(=O)C4CC4)nc3[C@H](Cc3cc(F)cc(F)c3)NC(=O)Cn3nc(C(F)F)c4c3C(F)(F)CCC4(F)F)c21 [Example 39]	99	99	> 57.1
Cn1nc(NS(=O)(=O)C2CC2)c2cccc(-c3ccc(C#CC(C)(C)S(=O)(=O)C4CC4)nc3[C@H](Cc3cc(F)cc(F)c3)NC(=O)Cn3nc(C(F)F)c4c3C(F)(F)[C@@H]3C[C@H]43)c21 [Example 40]	84	84	> 57.1
CC(C)(C#Cc1ccc(-c2ccc(Cl)c3c(NS(=O)(=O)C4CC4)nn(C4COC4)c23)c([C@H](Cc2cc(F)cc(F)c2)NC(=O)Cn2nc(C(F)F)c3c2C(F)(F)[C@@H]2C[C@H]32)n1)S(=O)(=O)C1CC1 [Example 41]	100	100	> 57.1
CC(C)(C#Cc1ccc(-c2ccc(Cl)c3c(NS(C)(=O)=O)nn(CC(F)F)c23)c([C@H](Cc2cc(F)cc(F)c2)NC(=O)Cn2nc(C(F)F)c3c2C(F)(F)CCC3(F)F)n1)S(=O)(=O)C1CC1 [Example 42]	89	89	> 57.1
Cn1nc(NS(C)(=O)=O)c2c(Cl)ccc(-c3ccc(C#CC(C)(C)S(=O)(=O)C4CC4)nc3[C@H](Cc3cc(F)cc(F)c3)NC(=O)Cn3nc(C(F)F)cc3C(F)F)c21 [Example 43]	87	87	> 57.1
Cn1nc(NS(C)(=O)=O)c2c(Cl)ccc(-c3ccc(C#CC(C)(C)S(=O)(=O)C4CC4)nc3[C@H](Cc3cc(F)cc(F)c3)NC(=O)Cn3nc(C(F)(F)F)cc3C3CC3)c21 [Example 44]	87	92	> 54.8
Cn1nc(NS(C)(=O)=O)c2c(Cl)ccc(-c3ccc(C#CC(C)(C)S(=O)(=O)C4CC4)nc3[C@H](Cc3cc(F)cc(F)c3)NC(=O)Cn3cnnn3)c21 [Example 45]	96	97	20.1
Cn1nc(NS(C)(=O)=O)c2c(Cl)ccc(-c3ccc(C#CC(C)(C)S(=O)(=O)C4CC4)nc3[C@H](Cc3cc(F)cc(F)c3)NC(=O)Cc3nnn[nH]3)c21 [Example 46]	0	10	> 54.6
Cn1nc(NS(C)(=O)=O)c2c(Cl)ccc(-c3ccc(C#CC(C)(C)S(=O)(=O)C4CC4)nc3[C@H](Cc3cc(F)cc(F)c3)NC(=O)Cn3cnnc3)c21 [Example 47]	0	0	> 57.1
Cn1nc(NS(C)(=O)=O)c2c(Cl)ccc(-c3ccc(C#CC(C)(C)S(=O)(=O)C4CC4)nc3[C@H](Cc3cc(F)cc(F)c3)NC(=O)Cn3ccnn3)c21 [Example 48]	0	0	> 57.1
Cn1nc(NS(C)(=O)=O)c2c(Cl)ccc(-c3ccc(C#CC(C)(C)S(=O)(=O)C4CC4)nc3[C@H](Cc3cc(F)cc(F)c3)NC(=O)Cn3ccnc3)c21 [Example 49]	0	90	> 57.1
Cn1nc(NS(C)(=O)=O)c2c(Cl)ccc(-c3ccc(C#CC(C)(C)S(=O)(=O)C4CC4)nc3[C@H](Cc3cc(F)cc(F)c3)NC(=O)Cn3cccn3)c21 [Example 50]	0	36	> 53.6
CCS(=O)(=O)Nc1nn(CC(F)F)c2c(-c3ccc(C#CC(C)(C)S(=O)(=O)C4CC4)nc3[C@H](Cc3cc(F)cc(F)c3)NC(=O)Cn3nc(C(F)F)c4c3C(F)(F)[C@@H]3C[C@H]43)cccc12 [Example 51]	67	91	51.2
